Measurements reported in publication PMC4594923, “Food Polyphenols Fail to Cause a Biologically Relevant Reduction of COX-2 Activity” (PLoS ONE, 2015).
“Also recorded” adds a separate entry of the source.

What was measured:
COX–2 protein [1] = conditions: cited from earlier work
IL–6 = assay: kidney IL–6 mRNA (qPCR) in LPS induced sepsis in mice; format: in vivo, C57BL/6N mice; conditions: compound i. p. 100 mg/kg bw 2 h before LPS, 24 h after LPS
Procedure: (§1) Samples were stored at -80°C till further analysis. […] Plasma was generated by centrifugation at 4000 g at 4°C and stored at -80°C till further analysis.
(§2) Tissue sections were stored in RNA-later immediately after organ retrieval. Total RNA was extracted using the RNeasy mini kit system (Qiagen, Hilden, Germany) and transcribed using Superscript II Reverse transcriptase (Invitrogen). Quantitative (q) PCR was performed on […] (Roche Diagnostics, Penzberg, Germany) using FastStart Sybr-Green chemistry. Gene-specific primers for IL–6 (Quantitec QT00098875, Qiagen) and MCP–1 (Quantitec QT00167832, Qiagen) were used for the gene of interest and HPRT served as house keeping gene for normalization (Quantitec QT00166768, Qigaen). Quantification was carried out using qgene software.

MCP–1 = assay: kidney MCP–1 mRNA (qPCR) in LPS induced sepsis in mice; format: in vivo, C57BL/6N mice; conditions: compound i. p. 100 mg/kg bw 2 h before LPS, 24 h after LPS, vs. LPS group
Procedure: as §1, §2

[2] = i.p. 50 mg/kg bw, LPS 37.5 mg/kg bw, 28–42 h post LPS administration; cited from earlier work
[3] = clinical chemistry in plasma (urea, creatinine, AST, ALT, LDH) in LPS induced sepsis in mice; format: in vivo, C57BL/6N mice; conditions: compound i. p. 100 mg/kg bw 2 h before LPS, 24 h after LPS
COX–2 [4] = biological target: T1, COX–2 (Homo sapiens, UniProt P35354); assay: cell-free COX–2 enzyme assay (PGE2 formation, LC-MS); format: biochemical
T1 sequence (P35354 18-604): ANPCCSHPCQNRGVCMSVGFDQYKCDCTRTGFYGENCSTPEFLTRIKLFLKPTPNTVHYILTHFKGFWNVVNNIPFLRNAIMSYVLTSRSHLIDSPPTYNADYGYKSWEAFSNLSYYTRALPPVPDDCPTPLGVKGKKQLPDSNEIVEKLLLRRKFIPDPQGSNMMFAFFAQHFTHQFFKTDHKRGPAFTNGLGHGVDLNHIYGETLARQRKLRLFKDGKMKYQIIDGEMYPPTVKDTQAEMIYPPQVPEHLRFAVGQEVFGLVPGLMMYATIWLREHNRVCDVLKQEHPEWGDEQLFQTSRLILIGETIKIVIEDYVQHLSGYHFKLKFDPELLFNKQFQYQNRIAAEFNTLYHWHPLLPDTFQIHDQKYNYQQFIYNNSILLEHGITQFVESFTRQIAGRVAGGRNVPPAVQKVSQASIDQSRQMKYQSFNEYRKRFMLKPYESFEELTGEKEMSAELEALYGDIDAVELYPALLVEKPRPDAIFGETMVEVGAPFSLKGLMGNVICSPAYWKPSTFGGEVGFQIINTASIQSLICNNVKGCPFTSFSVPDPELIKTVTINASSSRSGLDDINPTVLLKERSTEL
Procedure: (§3) The in vitro assays were performed as described [6, 16, 18] and COX metabolites were quantified by LC-MS [18].
(§4) Primary human monocytes were freshly isolated from human blood. Blood was collected from healthy human subjects after written informed consent was obtained. […] After 24 h, the supernatant was sampled for LC-MS and cells were collected for the COX–2 expression analysis by Western Blotting.
(§5) GraphPad Prism 5.0 (GraphPad Software, San Diego, USA) was used for data analysis, the fitting of dose response curves and calculation of the IC50 values. Statistical differences were determined by Dunnetts test (LPS vs. other groups).

COX–2 protein [5] = assay: COX–2 expression in LPS stimulated primary human monocytes (Western Blot); conditions: 24 h, vs. control
Procedure: as §4

COX–2 [6] = biological target: T1, COX–2; assay: PGE2 formation in LPS stimulated primary human monocytes (24 h, LC-MS); format: cell-based
Procedure: as §3, §4, §5

COX–2 [7] = biological target: T1, COX–2; assay: PGE2 formation in HCA–7 cells (24 h, LC-MS); format: cell-based; conditions: for changes of PGE2 formation in HCA–7 cells: non-cytotoxic concentrations, 24 h
Procedure: as §3
HCA–7 cells were incubated with sub-cytotoxic concentrations of the polyphenols dissolved in Tris buffered DMEM medium. Cytotoxicity of the polyphenols was evaluated by the lactate dehydrogenase leakage test (Cyto-Tox-ONE, Promega Mannheim, Germany). After 24 h the supernatant was collected for LC-MS analysis and the cells were harvested to analyze the COX–2 expression by Western Blotting.
After 24 h, the supernatant was sampled for LC-MS and cells were collected for the COX–2 expression analysis by Western Blotting.
as §5

[8] = single soy meal containing 3.6 μmol total genistein/kg bw; cited from earlier work

SMILES | COX–2 (protein) levels, RAW 264.7 cells (COX–2 protein [1]) | kidney IL–6 mRNA expression (IL–6; vs. LPS group) | kidney MCP–1 mRNA levels (MCP–1) | mortality [2] | plasma ALT activity [3] | plasma AST activity [3] | plasma LDH activity [3] | plasma creatinine level [3] | plasma urea level [3] | effect on COX–2 dependent PGE2 formation, cell-free enzyme assay (COX–2 [4]) | IC50 (COX–2 [4]; calculated based on PGE2, n = 3, read-out: IC50 (95% CI), COX–2 enzyme assay) [µM] | COX-2 Expression, primary monocytes (COX–2 protein [5]) | inhibition, primary monocytes (COX–2 [6]; up to 1 μM) | further increase of kidney IL–6 mRNA expression in comparison to LPS group (IL–6) [fold] | IC50 (95% CI), HCA-7 cell line (COX–2 [7]; calculated based on PGE2, n = 3, 24 h) | changes of PGE2 formation in HCA–7 cells (COX–2 [7]) | IC50 (95% CI), COX–2 enzyme assay (COX–2 [4]; calculated based on PGE2, n = 3) | IC50 (COX–2 [6]; IC50 (95% CI), primary monocytes, LPS stimulated, calculated based on PGE2, n = 3, 24 h) [µM] | inhibition at 100 µM (COX–2 [7]; HCA-7, 100 μM, read-out: inhibition, HCA-7 cell line) [%] | maximal plasma concentrations (free and conjugated form) [8] [µM]
O=c1cc(-c2ccc(O)cc2)oc2cc(O)cc(O)c12 [Apigenin, apigenin] | reduced COX–2 levels | did not see an effect | did not see an effect | reduced mortality | – | – | – | – | – | – | – | – | – | – | – | – | – | – | – | –
Oc1ccc(/C=C/c2cc(O)cc3c2[C@@H](c2cc(O)cc(O)c2)[C@H](c2ccc(O)cc2)O3)cc1 [ε-Viniferin, ε-viniferin] | – | – | – | – | elevated; also recorded: moderate elevation | elevated; also recorded: moderate elevation | moderate elevation | elevation | elevation | dose-dependently decreased; also recorded: inhibited | 11 | no effect (up to 1 μM) | inhibition < 50% (up to 1 μM) | 28 | no effect (up to 1 μM) | no or only slight | – | – | – | –
O=c1c(-c2ccc(O)cc2)coc2cc(O)cc(O)c12 [Genistein, genistein] | reduced | – | – | – | elevated | elevated | – | – | – | no effect | – | – | – | – | – | affected | no effect (up to 30 μM) | 7.4 | 54 | 4
